Reference: patent US20150306107A1, “SAA Derivative Compound Restores eNOS And Inhibits Oxidative Stress-Induced A Diseases In Hypoxia” (JANSFAT BIOTECHNOLOGY CO., LTD., priority 2014, published 2015)

What was measured:
eNOS [1] = assay: Western blotting of eNOS expression in rat carvenosus strip, acute hypoxia; assay type: cell-based; set-up: unit not given here
ROCK II [2] = assay: Western blotting of ROCK II expression in isolated rat pulmonary artery ring, short-term (acute) hypoxia or normoxia; assay type: cell-based; settings: for ROCK II expression, Pulmonary Artery Ring: acute hypoxia, Normoxia 100, Hypoxia 560 ± 21
Experimental: (§1) In our in vitro short-term experiment, isolated rat pulmonary artery was grown under normoxia (20% O2) or hypoxia (1% O2) at 37° C. for 24 hrs as was previously done (Wu BN, et al. Int J Immunopathol Pharmacol 24:925, 2011). The heart weight and body weight ratio (HW/BW) of the rats treated with one of SPAAX-1, SPAAX-1 RX complex, Sildenafil or Sildenafil RX complex each measured on the 21st hypoxic day. All animal care and the experimental protocols of this study were approved by the Animal Care and Use Committee of the Kaohsiung Medical University. Male Wistar rats (200-250 g), provided by the National Laboratory Animal Breeding and Research Center (Taipei, Taiwan), were housed under constant temperature and controlled illumination. Food and water were available ad libitum.
(§2) Whole right lung tissues of hypoxia-treated and untreated rats were isolated and cut into small strips and placed into an extraction buffer (Tris 10 mM, pH 7.0, NaCl 140 mM, PMSF 2 mM, DTT 5 mM, NP-40 0.5%, pepstatin A 0.05 mM and leupeptin 0.2 mM) for protein extraction, and then centrifuged at 12,500 g for 30 min. To measure the expression levels of the proteins, the total proteins were extracted and Western blotting analysis was performed as described previously (Bivalacqua T J, et al., 2013, TJ PLoSONE 8: e68028. doi:10.1371/journal. pone.0068028). Briefly, the protein extract was boiled to a ratio of 4:1 with a sample buffer (Tris 100 mM, pH 6.8, glycerol 20%, SDS 4% and bromophenol blue 0.2%). Electrophoresis was performed using 10% SDS-polyacrylamide gel (2 hr, 100 V, 40 mA, […] protein per lane). Separated proteins were transferred to PVDF membranes treated with 5% fat-free milk powder to block the nonspecific IgGs (90 min, 100 V) and incubated for one hour with a specific protein antibody. The blot was then incubated with anti-mouse or anti-goat IgG linked to alkaline phosphatase (1:1000) for 1 hr. Immunoreactive bands were visualized using horseradish peroxidase-conjugated secondary antibodies and subsequent electrochemiluminescence (ECL) detection (GE Healthcare Bio-Sciences Corp., Piscataway, N.J., U.S.A.). Mouse or rabbit monoclonal antibody of eNOS (Upstate, N.Y., U.S.A.), sGCα (Sigma-Adrich, CA, U.S.A., sGCβ (Santa Cruz, Calif., U.S.A.), PDE-5A (BD Tansduction, San Jose, Calif., U.S.A.), PKG (Calbiochem, San Diego, Calif., U.S.A.) ROCKII (Upstate, N.Y., U.S.A.), RhoA (Santa Cruze, Calif., U.S.A.) and the loading control protein β-actin (Sigma-Adrich, MO, U.S.A.) were used in our Western blot analysis.
(§3) The Western blotting analysis measurements were performed as per lung tissue.

VEGF [3] = assay: Western blotting of VEGF expression in isolated rat pulmonary artery ring, short-term (acute) hypoxia; assay type: cell-based
Experimental: as §1, §2, §3

VEGF [4] = assay: Western blotting of VEGF expression in rat carvenosus strip, acute hypoxia; assay type: cell-based; set-up: unit not given here
eNOS [5] = assay: Western blotting of eNOS expression in isolated rat pulmonary artery ring, short-term (acute) hypoxia or normoxia; assay type: cell-based; settings: for eNOS expression, Pulmonary Artery Ring: acute hypoxia, Normoxia 100, Hypoxia 65.3 ± 7.8
Experimental: as §1, §2, §3

eNOS [6] = assay: Streptozotocin (STZ) induced eNOS down-regulation of rat carvenosa tissue; assay type: in vivo; settings: STZ model; 2.5 mg/kg; Control 100, STZ 60 ± 7.3
Experimental: (§4) Electrophoresis was performed using 10% SDS-polyacrylamide gel (2 hr, 100 V, 40 mA, […] protein per lane). Separated proteins were transferred to PVDF membranes treated with 5% fat-free milk powder to block the nonspecific IgGs (90 min, 100 V) and incubated for one hour with a specific protein antibody. The blot was then incubated with anti-mouse or anti-goat IgG linked to alkaline phosphatase (1:1000) for 1 hr. Immunoreactive bands were visualized using horseradish peroxidase-conjugated secondary antibodies and subsequent electrochemiluminescence (ECL) detection (GE Healthcare Bio-Sciences Corp., Piscataway, N.J., U.S.A.). Mouse or rabbit monoclonal antibody of eNOS (Upstate, N.Y., U.S.A.), sGCα (Sigma-Adrich, CA, U.S.A., sGCβ (Santa Cruz, Calif., U.S.A.), PDE-5A (BD Tansduction, San Jose, Calif., U.S.A.), PKG (Calbiochem, San Diego, Calif., U.S.A.) ROCKII (Upstate, N.Y., U.S.A.), RhoA (Santa Cruze, Calif., U.S.A.) and the loading control protein β-actin (Sigma-Adrich, MO, U.S.A.) were used in our Western blot analysis.

ROCK II [7] = assay: Cigarette smoking-induced Rho/ROCK activation of rat pulmonary artery ring; assay type: in vivo; settings: Intraperitoneal (100 mg/kg) 1 h prior to smoke exposure, Non-Smoking control 100, Smoking 530 ± 34
Experimental: Intraperitoneal SAA complex (100 mg/kg in 200 μl of the solution) or 200 μl of saline (control) were given to animals through intraperitoneal injection 1 h prior to smoke exposure.
as §2

ROCK II [8] = assay: as above; assay type: in vivo; settings: Nebulization (2.5 mM), Non-Smoking control 100, Smoking 540 ± 28
ROCK II [9] = assay: Streptozotocin (STZ) induced RhoA/ROCKII activation of rat carvenosa tissue; assay type: in vivo; settings: STZ model; 2.5 mg/kg; Control 100, STZ 142 ± 28
Experimental: as §4

[10] = Normoxia 100, Hypoxia 62.4 ± 5.5
[11] = normoxia for 24 hrs, 10 μm, versus non-treated controls

Compound | eNOS expression, Carvenosus (eNOS [1]; [10]) | ROCK II expression, Pulmonary Artery Ring (ROCK II [2]) | VEGF expression, Pulmonary Artery Ring (VEGF [3]; Normoxia 100, Hypoxia 175 ± 14) | VEGF expression, Carvenosus (VEGF [4]; Normoxia 100, Hypoxia 170 ± 15) | eNOS expression, Pulmonary Artery Ring (eNOS [5]) | further results
CCCCCCCC/C=C\CCCCCCCC(=O)O.COc1ccccc1N1CCN(CCn2cnc3c2c(=O)n(C)c(=O)n3C)CC1 [Example 7, 7-[2-[4-(2-methoxyphenyl)piperazinyl]ethyl]-1,3-dimethylxanthine oleate complex] | 122 ± 4.9 | 190 ± 7.7 | 91 ± 6.5 | 84 ± 8.8 | 180 ± 7.6 | 
Cn1c(=O)c2c(ncn2CCN2CCN(c3ccc([N+](=O)[O-])cc3)CC2)n(C)c1=O.O=C1O[C@H]([C@@H](O)CO)C(O)=C1O [Example 8, 7-[2-[4-(4-nitrophenyl)piperazinyl]ethyl]-1,3-dimethyl-xanthine ascorbate complex] | 45 ± 4.2 | 150 ± 14 | 122 ± 16 | 116 ± 12 | 80 ± 3.2 | 
Cl.Cn1c(=O)c2c(ncn2CCN2CCN(c3ccccc3Cl)CC2)n(C)c1=O [Reagent 3, 7-[2-[4-(2-chlorophenyl)piperazinyl]ethyl]-1,3-dimethylxanthine HCl Complex] | 102 ± 5.8 | 255 ± 4.6 | 108 ± 8.2 | 110 ± 9.4 | 136 ± 4.6 | eNOS, Carvanosus tissue (eNOS [6]): 140 ± 5.3%; ROCK II of pulmonary artery ring (ROCK II [7]): 76 ± 5.3; ROCK II of pulmonary artery ring (ROCK II [8]): 76 ± 6.2; ROCK II, Carvanosus tissue (ROCK II [9]): 40 ± 5.2%
CCCc1nn(C)c2c(=O)[nH]c(-c3cc(S(=O)(=O)N4CCN(C)CC4)ccc3OCC)nc12.O=C1OC(C(O)CO)C(O)=C1O [Reagent 1002, Sildenafil DL-ascorbate complex] |  |  |  |  |  | eNOS expression, Carvenosus (eNOS [1]; Normoxia 100, Hypoxia 62.4 ± 5.5, listed as 1002): 125 ± 5.4; ROCK II expression, Pulmonary Artery Ring (ROCK II [2]; listed as 1002): 211 ± 12.5; VEGF expression, Pulmonary Artery Ring (VEGF [3]; Normoxia 100, Hypoxia 175 ± 14, listed as 1002): 90 ± 5.8; VEGF expression, Carvenosus (VEGF [4]; Normoxia 100, Hypoxia 170 ± 15, listed as 1002): 90 ± 7.9; eNOS expression, Pulmonary Artery Ring (eNOS [5]; listed as 1002): 130 ± 6.4
CCCc1nn(C)c2c(=O)[nH]c(-c3cc(S(=O)(=O)N4CCN(C)CC4)ccc3OCC)nc12.Cl [Reagent 1003, Sildenafil HCl complex] | 110 ± 5.2 |  | 94 ± 9.8 | 105 ± 16 | 116 ± 7.2 | ROCK II of pulmonary artery ring (ROCK II [7]): 82 ± 7.6; ROCK II of pulmonary artery ring (ROCK II [8]): 62 ± 4.8
CCCc1nn(C)c2c(=O)[nH]c(-c3cc(S(=O)(=O)N4CCN(C)CC4)ccc3OCC)nc12.O=C(O)C=CC(=O)O [Reagent 1008, Sildenafil maleate complex] | 45 ± 4.2 |  |  |  |  | ROCK II expression, Pulmonary Artery Ring (ROCK II [2]; listed as 1008): 150 ± 14; VEGF expression, Carvenosus (VEGF [4]; Normoxia 100, Hypoxia 170 ± 15, listed as 1008): 116 ± 12
CCCc1nn(C)c2c(=O)[nH]c(-c3cc(S(=O)(=O)N4CCN(C)CC4)ccc3OCC)nc12.O=C(O)CC(O)C(=O)O [Reagent 1009, Sildenafil malate complex] |  | 120 ± 12 |  | 118 ± 18 |  | 
CCCc1nn(C)c2c(=O)[nH]c(-c3cc(S(=O)(=O)N4CCN(C)CC4)ccc3OCC)nc12.O=C(O)C=CC(=O)O [Reagent 1010, Sildenafil fumarate complex] |  |  |  |  |  | ROCK II expression, Pulmonary Artery Ring (ROCK II [2]; listed as 1010): 125 ± 13; VEGF expression, Carvenosus (VEGF [4]; Normoxia 100, Hypoxia 170 ± 15, listed as 1010): 117 ± 17
CC(O)C(=O)O.CCCc1nn(C)c2c(=O)[nH]c(-c3cc(S(=O)(=O)N4CCN(C)CC4)ccc3OCC)nc12 [Reagent 1011, Sildenafil lactate complex] | 46 ± 4.7 | 310 ± 21 | 133 ± 17 | 118 ± 16 | 75 ± 13 | 
CC(=O)O.CCCc1nn(C)c2c(=O)[nH]c(-c3cc(S(=O)(=O)N4CCN(C)CC4)ccc3OCC)nc12 [Reagent 1012, Sildenafil acetate complex] |  | 270 ± 27 |  |  | 70 ± 13 | 
CCCCCCCCC=CCCCCCCCC(=O)O.CCCc1nn(C)c2c(=O)[nH]c(-c3cc(S(=O)(=O)N4CCN(C)CC4)ccc3OCC)nc12 [Reagent 1013, Sildenafil oleate complex] |  |  |  |  | 104 ± 18 | 
CCCc1nn(C)c2c(=O)[nH]c(-c3cc(S(=O)(=O)N4CCN(C)CC4)ccc3OCC)nc12.O=C(O)C(=O)O [Reagent 1015, Sildenafil oxalate complex] | 65 ± 4.7 | 395 ± 27 |  |  | 68 ± 15 | 
CCCc1nn(C)c2c(=O)[nH]c(-c3cc(S(=O)(=O)N4CCN(C)CC4)ccc3OCC)nc12.O=C(O)c1ccccc1O [Reagent 1016, Sildenafil-Salicylate complex] | 110 ± 4.7 | 178 ± 19 | 90 ± 5.2 | 90 ± 7.5 | 165 ± 16 | 
C[C@@H](N)[C@H]1CC[C@H](C(=O)Nc2ccncc2)CC1 [Reagent Y27632, Y27632, reference compound] |  |  |  |  |  | expression of ROCK II in isolated hypoxic pulmonary artery (ROCK II [2]; hypoxia for 24 hrs, versus control level in normoxia, hypoxia 180±10.2%): 150±13.1%; Expression of ROCK II in isolated pulmonary artery ring (ROCK II [2]; [11]): 67.5±14.8%; eNOS in isolated hypoxic pulmonary artery (eNOS [5]; hypoxia for 24 hrs, versus control level in normoxia, hypoxia 60±8.3%): 50±4.7%; expression of eNOS in isolated pulmonary artery ring (eNOS [5]; [11]): 114.1±12.3%
Sildenafil Arginate complex [Reagent 1017] | 124 ± 11 | 182 ± 21 | 90 ± 6.4 | 90 ± 8.2 | 180 ± 12 | 
